According to ChEMBL document CHEMBL1143181, “2-Aminoresorcinol is a potent alpha-glucosidase inhibitor” (Bioorg Med Chem Lett, 2008):

Legend:
[1] = molecular target: Sucrase-isomaltase, intestinal (Rattus norvegicus) (UniProt P23739); assay: Inhibition of rat intestinal sucrase at 500 uM
[2] = molecular target: T1, Sucrase-isomaltase, intestinal (Rattus norvegicus, UniProt P23739); assay: Inhibition of rat intestinal sucrase
[3] = molecular target: Alpha-galactosidase (Coffea arabica) (UniProt Q5DUH8); assay: Inhibition of green coffee bean alpha galactosidase; conditions: concentration not given here
Chain of Alpha-galactosidase (Coffea arabica) (Q5DUH8 as listed by the source): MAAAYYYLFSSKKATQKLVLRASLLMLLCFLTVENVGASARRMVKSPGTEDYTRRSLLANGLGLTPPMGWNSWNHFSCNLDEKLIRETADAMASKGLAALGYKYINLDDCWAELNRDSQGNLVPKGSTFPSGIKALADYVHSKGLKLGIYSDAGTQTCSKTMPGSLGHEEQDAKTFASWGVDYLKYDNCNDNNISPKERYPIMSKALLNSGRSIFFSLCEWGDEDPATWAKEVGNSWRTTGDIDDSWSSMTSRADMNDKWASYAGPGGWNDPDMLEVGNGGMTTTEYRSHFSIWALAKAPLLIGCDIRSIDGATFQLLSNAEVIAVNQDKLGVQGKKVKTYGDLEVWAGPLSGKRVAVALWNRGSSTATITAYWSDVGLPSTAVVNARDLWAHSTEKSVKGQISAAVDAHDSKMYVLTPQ

Canavalia ensiformis = assay: Inhibition of jack bean alpha mannosidase; conditions: concentration not given here
[4] = molecular target: T2, Alpha-amylase (Sus scrofa domesticus) (UniProt Q7M328); assay: Inhibition of pig pancreas alpha amylase; conditions: concentration not given here
T2 sequence (whole entry): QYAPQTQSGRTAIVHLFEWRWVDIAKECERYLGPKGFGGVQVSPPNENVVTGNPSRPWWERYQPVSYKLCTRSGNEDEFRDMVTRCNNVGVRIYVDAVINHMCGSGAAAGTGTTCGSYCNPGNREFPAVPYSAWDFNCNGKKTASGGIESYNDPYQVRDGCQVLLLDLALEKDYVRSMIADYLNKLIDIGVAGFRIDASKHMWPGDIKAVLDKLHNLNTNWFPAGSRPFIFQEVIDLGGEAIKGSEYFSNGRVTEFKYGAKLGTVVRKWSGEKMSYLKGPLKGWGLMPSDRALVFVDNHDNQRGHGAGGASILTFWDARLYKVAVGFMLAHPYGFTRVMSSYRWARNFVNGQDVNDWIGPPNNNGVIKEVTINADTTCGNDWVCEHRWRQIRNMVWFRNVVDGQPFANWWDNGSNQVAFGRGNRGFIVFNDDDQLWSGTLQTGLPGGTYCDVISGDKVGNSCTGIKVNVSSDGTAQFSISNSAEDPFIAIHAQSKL

[5] = molecular target: T3, Beta-galactosidase (Bos taurus) (UniProt Q58D55); assay: Inhibition of bovine liver beta galactosidase; conditions: concentration not given here
T3 sequence (whole entry): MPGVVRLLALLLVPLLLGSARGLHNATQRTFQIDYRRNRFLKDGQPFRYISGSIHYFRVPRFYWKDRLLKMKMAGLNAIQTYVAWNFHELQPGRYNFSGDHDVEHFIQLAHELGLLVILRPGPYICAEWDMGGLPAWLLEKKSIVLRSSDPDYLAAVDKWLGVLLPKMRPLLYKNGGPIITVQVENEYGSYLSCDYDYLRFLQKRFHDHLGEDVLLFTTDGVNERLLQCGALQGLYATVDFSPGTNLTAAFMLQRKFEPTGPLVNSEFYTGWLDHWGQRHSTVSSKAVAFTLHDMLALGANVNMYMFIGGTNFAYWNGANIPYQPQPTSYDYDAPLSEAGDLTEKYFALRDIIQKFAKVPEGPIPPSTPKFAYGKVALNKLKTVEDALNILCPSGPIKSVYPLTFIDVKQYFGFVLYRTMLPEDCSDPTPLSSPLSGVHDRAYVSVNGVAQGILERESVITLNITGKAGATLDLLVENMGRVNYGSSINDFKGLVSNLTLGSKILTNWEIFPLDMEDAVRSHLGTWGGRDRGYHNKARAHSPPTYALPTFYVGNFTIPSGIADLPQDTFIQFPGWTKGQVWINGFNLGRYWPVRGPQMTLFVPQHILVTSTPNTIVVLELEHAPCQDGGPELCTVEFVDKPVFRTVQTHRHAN

Prunus dulcis = assay: Inhibition of almond beta glucosidase; conditions: concentration not given here
[6] = molecular target: Sucrase-isomaltase, intestinal (Rattus norvegicus) (UniProt P23739); assay: Inhibition of rat intestinal isomaltase at 500 uM
[7] = molecular target: T1, Sucrase-isomaltase, intestinal; assay: Inhibition of sucrose hydrolyzing activity of rat intestinal alpha glucosidase

T1 sequence (P23739 1-1013 limits assumed): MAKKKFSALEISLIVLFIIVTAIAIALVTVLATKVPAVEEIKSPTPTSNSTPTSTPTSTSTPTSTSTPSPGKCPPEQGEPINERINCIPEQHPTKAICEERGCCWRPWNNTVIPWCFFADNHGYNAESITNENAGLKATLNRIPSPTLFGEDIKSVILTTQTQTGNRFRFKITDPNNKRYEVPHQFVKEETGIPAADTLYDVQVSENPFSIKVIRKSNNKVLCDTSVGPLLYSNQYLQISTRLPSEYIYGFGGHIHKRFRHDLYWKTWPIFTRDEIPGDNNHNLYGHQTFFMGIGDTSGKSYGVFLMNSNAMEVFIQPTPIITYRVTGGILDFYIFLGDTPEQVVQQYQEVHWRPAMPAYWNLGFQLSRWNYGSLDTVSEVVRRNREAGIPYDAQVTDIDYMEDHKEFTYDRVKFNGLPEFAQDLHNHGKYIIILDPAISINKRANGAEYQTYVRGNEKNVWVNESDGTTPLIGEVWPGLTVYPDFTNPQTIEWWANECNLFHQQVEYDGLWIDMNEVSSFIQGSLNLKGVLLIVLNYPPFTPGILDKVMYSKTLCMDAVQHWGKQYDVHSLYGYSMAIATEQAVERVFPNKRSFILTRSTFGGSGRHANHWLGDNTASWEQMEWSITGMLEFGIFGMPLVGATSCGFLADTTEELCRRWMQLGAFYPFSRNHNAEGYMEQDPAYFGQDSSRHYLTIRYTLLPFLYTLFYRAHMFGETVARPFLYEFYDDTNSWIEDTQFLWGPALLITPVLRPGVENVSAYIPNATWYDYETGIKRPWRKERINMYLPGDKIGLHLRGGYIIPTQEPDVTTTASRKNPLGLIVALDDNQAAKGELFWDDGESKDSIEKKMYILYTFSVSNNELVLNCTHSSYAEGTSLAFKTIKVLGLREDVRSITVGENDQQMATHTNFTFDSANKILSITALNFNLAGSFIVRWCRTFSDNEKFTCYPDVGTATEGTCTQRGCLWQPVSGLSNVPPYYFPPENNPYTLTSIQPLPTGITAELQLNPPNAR
T1 sequence (P23739 1014-1841 limits assumed): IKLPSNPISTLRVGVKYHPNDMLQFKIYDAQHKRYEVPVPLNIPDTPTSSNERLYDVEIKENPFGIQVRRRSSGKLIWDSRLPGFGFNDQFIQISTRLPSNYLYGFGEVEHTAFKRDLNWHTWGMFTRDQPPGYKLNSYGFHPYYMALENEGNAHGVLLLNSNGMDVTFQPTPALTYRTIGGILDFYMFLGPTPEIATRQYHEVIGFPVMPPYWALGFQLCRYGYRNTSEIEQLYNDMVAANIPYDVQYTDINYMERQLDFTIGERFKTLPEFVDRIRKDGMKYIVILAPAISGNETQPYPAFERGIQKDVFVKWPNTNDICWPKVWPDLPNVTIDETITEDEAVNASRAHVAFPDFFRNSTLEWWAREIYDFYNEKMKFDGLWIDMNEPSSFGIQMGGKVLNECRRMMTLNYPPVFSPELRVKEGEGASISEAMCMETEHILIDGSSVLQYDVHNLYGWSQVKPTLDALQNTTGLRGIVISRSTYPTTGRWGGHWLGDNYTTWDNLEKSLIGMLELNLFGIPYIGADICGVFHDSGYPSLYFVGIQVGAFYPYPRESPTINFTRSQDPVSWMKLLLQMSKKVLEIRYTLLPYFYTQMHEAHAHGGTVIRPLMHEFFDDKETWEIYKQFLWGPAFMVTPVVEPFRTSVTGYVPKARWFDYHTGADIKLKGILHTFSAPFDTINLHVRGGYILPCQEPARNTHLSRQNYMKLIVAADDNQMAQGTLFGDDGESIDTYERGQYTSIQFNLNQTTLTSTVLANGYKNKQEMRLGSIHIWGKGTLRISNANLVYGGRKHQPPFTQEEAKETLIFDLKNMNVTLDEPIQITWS
Chain of Sucrase-isomaltase, intestinal (Rattus norvegicus) (P23739 1-1013 limits assumed): as the sequence (P23739 1-1013 limits assumed) above
Chain of Sucrase-isomaltase, intestinal (Rattus norvegicus) (P23739 1014-1841 limits assumed): as the sequence (P23739 1014-1841 limits assumed) above

SMILES | inhibition [1] [%] | IC50 [2] [µM] | inhibition [3] [%] | inhibition (Canavalia ensiformis) [%] | inhibition [4] [%] | inhibition [5] [%] | inhibition (Prunus dulcis) [%] | inhibition [6] [%] | Ki [7] [µM]
N[C@H]1[C@H](O)CCC[C@@H]1O | 10 | > 500 |  |  |  |  |  |  | 
CC(=O)c1ccc(O)c(N)c1O |  | 3.6 | 10 | 4 | 15 | 5 | 7 |  | 
Nc1c(O)cccc1O |  | 4.2 | 8 | 3 | 11 | 4 | 12 |  | 4.2
Nc1ccc(O)cc1O | 46 | > 500 |  |  |  |  |  |  | 
Oc1cccc(O)c1O [PYROGALLOL] | 42 | > 500 |  |  |  |  |  |  | 

The remaining lines, values ahead:

inhibition [1] [%] | IC50 [2] [µM] | inhibition [3] [%] | inhibition (Canavalia ensiformis) [%] | inhibition [4] [%] | inhibition [5] [%] | inhibition (Prunus dulcis) [%] | inhibition [6] [%] | Ki [7] [µM] | SMILES
 | 52 |  |  |  |  |  |  |  | O=c1cc(-c2ccccc2)oc2cc(O)c(O)c(O)c12 [BAICALEIN]
 | 2.4 | 6 | 7 | 12 | 10 | 19 | 32 |  | Nc1c(O)cc2oc(-c3ccccc3)cc(=O)c2c1O
